How the values were obtained:
[1] = Stability of multibiotic agents in Simulated Intestinal Fluid (SIF); type: in vitro ADME; conditions: simulated intestinal fluid pH 6.7 with pancreatin, 37° C., 1 μM
Experimental: Assay 2. Stability of multibiotic agents in Simulated Intestinal Fluid (SIF). This assay can be used to assess the stability of a multibiotic agent in a small intestine. Phosphate buffer was prepared by dissolving 0.42 g of sodium hydroxide pellets and 3.95 g of monobasic sodium phosphate monohydrate and 6.19 g of sodium chloride in ultrapure water (MilliQ®, Millipore Sigma, Darmstadt, Germany). The pH was adjusted to 6.7 using aq. HCl and aq. NaOH, as necessary, and the solution was diluted with ultrapure water to produce 1 L of the pH 6.7 buffer. 112 mg FaSSIF powder (Biorelevant™, London, UK) was dissolved in 50 mL of the pH 6.7 buffer. 2 to 3 mL of the resulting solution were then added to 500 mg pancreatin (Millipore Sigma, Darmstadt, Germany). The resulting mixture was agitated by finger tapping the vessel containing the mixture until milky suspension formed. At this time, the remainder of the 50 mL FaSSiF/pH 6.7 buffer solution was added. The resulting suspension was flipped upside down 10 times to produce SIF, which was used fresh. Test compounds are dissolved in DMSO stock to 1 mM. An aliquot of the DMSO stock solution is removed and diluted in the SIF media in 15 mL falcon tubes to produce a mixture with a tested compound concentration of 1 μM. A 1 mL aliquot is immediately removed and diluted once with 1 volume of acetonitrile for T0 timepoint. The mixture is sealed and agitated at 37° C. in an incubator. Aliquots (1 mL) are removed at regular intervals and immediately quenched by the addition of 1 volume of acetonitrile. The resulting samples are analyzed by LC/MS to determine degradation rates.

[2] = Stability of multibiotic agents in Simulated Gastric Fluid (SGF); type: in vitro ADME; conditions: simulated gastric fluid pH 1.6 with pepsin, 37° C., 1 μM
Experimental: Assay 3. Stability of multibiotic agents in Simulated Gastric Fluid (SGF). This assay can be used to assess the stability of a multibiotic agent in a stomach.
Medium was prepared by dissolving 2 g of sodium chloride in 0.6 L in ultrapure water (MilliQ®, Millipore Sigma, Darmstadt, Germany). The pH was adjusted to 1.6 with 1 N hydrochloric acid, and the volume was then adjusted to 1 L with purified water.
60 mg FaSSIF powder (Biorelevant™, London, UK) were dissolved in 500 mL buffer (above). Pepsin was added (0.1 mg/mL) (Millipore Sigma, Darmstadt, Germany), and the solution was stirred. The resulting SGF media were used fresh for each experiment.
Test compounds were dissolved in DMSO stock to 1 mM. An aliquot of the DMSO stock solution was removed and diluted in the SGF Media in 15 mL falcon tubes to generate a total compound concentration of 1 μM. A 1 mL aliquot was immediately removed and diluted once with 1 volume of acetonitrile for T0 timepoint. The mixture was sealed and mixed at 37° C. in an incubator. Aliquots (1 mL) were removed at regular intervals and immediately quenched by the addition of 1 volume of acetonitrile. The resulting samples were analyzed by LC/MS to determine degradation rates in SGF.

| SMILES | Assay 3 (SIF) (% @ Remaining 4 hours) [1] | Assay 2 (SGF) (% Remaining @ 4 hours) [2] |
| --- | --- | --- |
| CCCC(=O)O[C@H]1CO[C@H]2[C@@H]1OC[C@H]2OC(=O)CCC [Example 108, [(3S,3aR,6R,6aR)-6-butanoyloxy-2,3,3a,5,6,6a-hexahydrofuro[3,2-b]furan-3-yl] butanoate] | B (25-75% of the tested compound remaining) | C (>75% of the tested compound remaining) |
| Cc1ncc(COC(=O)CCc2c[nH]c3ccccc23)c(COC(=O)CCc2c[nH]c3ccccc23)c1OC(=O)CCc1c[nH]c2ccccc12 [Example 103, [5-[3-(1H-indol-3-yl)propanoyloxy]-4-[3-(1H-indol-3-yl)propanoyloxymethyl]-6-methyl-3-pyridyl]methyl3-(1H-indol-3-yl)propanoate] | A (<25% of the tested compound remaining) | C (>75% of the tested compound remaining) |
| CCCC(=O)OC1O[C@@H](C)[C@H](OC(=O)CCC)[C@@H](OC(=O)CCC)[C@H]1OC(=O)CCC (stereo partly drawn) [Example 152, [(2S,3S,4R,5R)-4,5,6-tri(butanoyloxy)-2-methyl-tetrahydropyran-3-yl] butanoate] | C (>75% of the tested compound remaining) | C (>75% of the tested compound remaining) |
| CC(=O)O[C@H]1CO[C@H]2[C@@H]1OC[C@H]2OC(C)=O [Example 88, [(3S,3aR,6R,6aR)-6-acetoxy-2,3,3a,5,6,6a-hexahydrofuro[3,2-b]furan-3-yl] acetate] | C (>75% of the tested compound remaining) | C (>75% of the tested compound remaining) |
| CCCC(=O)N[C@H]1CC[C@H](NC(=O)CCC)CC1 [Example 132, trans-N-[4-(butanoylamino)cyclohexyl]butanamide] | C (>75% of the tested compound remaining) | C (>75% of the tested compound remaining) |
| CCCC(=O)N1CCN(C(=O)CCC)CC1 [Example 130, 1-(4-butanoylpiperazin-1-yl)butan-1-one] | C (>75% of the tested compound remaining) | C (>75% of the tested compound remaining) |
| CCCCCCCCCC(=O)Oc1ccc(/C=C/c2cc(OC(=O)CCCCCCCCC)cc(OC(=O)CCCCCCCCC)c2)cc1 [Example 70, [4-[(E)-2-[3,5-di(decanoyloxy)phenyl]vinyl]phenyl] decanoate] |  | C (>75% of the tested compound remaining) |
| CCCC(=O)N(C)CCCN(C)C(=O)CCC [Example 131, N-[3-[butanoyl(methyl)amino]propyl]-N-methyl-butanamide] | C (>75% of the tested compound remaining) | C (>75% of the tested compound remaining) |
| CC(C)(COC(=O)/C=C/c1c[nH]c2ccccc12)[C@@H](OC(=O)/C=C/c1c[nH]c2ccccc12)C(=O)NCCCOC(=O)/C=C/c1c[nH]c2ccccc12 [Example 125, 3-[[(2R)-2,4-bis[[(E)-3-(1H-indol-3-yl)prop-2-enoyl]oxy]-3,3-dimethyl-butanoyl]amino]propyl (E)-3-(1H-indol-3-yl)prop-2-enoate] | C (>75% of the tested compound remaining) | C (>75% of the tested compound remaining) |
| C[C@@H](O)CC(=O)NCCCNCCCCN(CCCNC(=O)C[C@@H](C)O)C(=O)C[C@@H](C)O [Example 137, (3R)-3-hydroxy-N-[3-[4-[[(3R)-3-hydroxybutanoyl]-[3-[[(3R)-3-hydroxybutanoyl]amino]propyl]amino]butylamino]propyl]butanamide] | C (>75% of the tested compound remaining) | C (>75% of the tested compound remaining) |
| C=C1CC[C@H](OC(=O)C2(C)OCC[C@@H](C)O2)C/C1=C/C=C1\CCC[C@]2(C)[C@@H]([C@H](C)CCCC(C)C)CC[C@@H]12 (stereo partly drawn) [Example 187, [(1S,3Z)-3-[(2E)-2-[(1R,3aS,7aR)-1-[(1R)-1,5-dimethylhexyl]-7a-methyl-2,3,3a,5,6,7-hexahydro-1H-inden-4-ylidene]ethylidene]-4-methylene-cyclohexyl] (4R)-2,4-dimethyl-1,3-dioxane-2-carboxylate] | C (>75% of the tested compound remaining) | B (25-75% of the tested compound remaining) |
| O=C(CCc1c[nH]c2ccccc12)Oc1ccc2c(c1)oc(=O)c1cc(OC(=O)CCc3c[nH]c4ccccc34)c(OC(=O)CCc3c[nH]c4ccccc34)cc12 [Example 56, [8,9-bis[3-(1H-indol-3-yl)propanoyloxy]-6-oxo-benzo[c]chromen-3-yl] 3-(1H-indol-3-yl)propanoate] | C (>75% of the tested compound remaining) | C (>75% of the tested compound remaining) |
| O=C(Cc1c[nH]c2ccccc12)Oc1ccc2c(c1)oc(=O)c1cc(OC(=O)Cc3c[nH]c4ccccc34)c(OC(=O)Cc3c[nH]c4ccccc34)cc12 [Example 55, [8,9-bis[[2-(1H-indol-3-yl)acetyl]oxy]-6-oxo-benzo[c]chromen-3-yl] 2-(1H-indol-3-yl)acetate] | B (25-75% of the tested compound remaining) | C (>75% of the tested compound remaining) |
| CCCC(=O)OC1OC[C@H](OC(=O)CCC)[C@H](OC(=O)CCC)[C@H]1OC(=O)CCC (stereo partly drawn) [Example 139, [(3S,4S,5R)-4,5,6-tri(butanoyloxy)tetrahydropyran-3-yl] butanoate] | C (>75% of the tested compound remaining) | C (>75% of the tested compound remaining) |
| O=C(Cc1c[nH]c2ccccc12)O[C@H]1CO[C@H]2[C@@H]1OC[C@H]2OC(=O)Cc1c[nH]c2ccccc12 [Example 109, [(3S,3aR,6R,6aR)-6-[2-(1H-indol-3-yl)acetyl]oxy-2,3,3a,5,6,6a-hexahydrofuro[3,2-b]furan-3-yl] 2-(1H-indol-3-yl) acetate] | A (<25% of the tested compound remaining) |  |
| CCCC(=O)O[C@@H]1[C@@H](OC(=O)CCC)[C@@H](Oc2ccc(N)cc2C(=O)O)OC[C@@H]1OC(=O)CCC [Example 121, 5-amino-2-[(2R,3R,4S,5S)-3,4,5-tri(butanoyloxy)tetrahydropyran-2-yl]oxy-benzoic acid] | C (>75% of the tested compound remaining) |  |
| CC(C)(COC(=O)CCc1c[nH]c2ccccc12)[C@@H](OC(=O)CCc1c[nH]c2ccccc12)C(=O)NCCCOC(=O)CCc1c[nH]c2ccccc12 [Example 93, 3-[[(2R)-2,4-bis[3-(1H-indol-3-yl)propanoyloxy]-3,3-dimethyl-butanoyl]amino]propyl 3-(1H-indol-3-yl)propanoate] | A (<25% of the tested compound remaining) |  |
| CCC(=O)O[C@H]1[C@H](OC(=O)CC)COC(OC(=O)CCc2c[nH]c3ccccc23)[C@@H]1OC(=O)CC (stereo partly drawn) [Example 168, [(3R,4S,5R)-3,4,5-tri(propanoyloxy)tetrahydropyran-2-yl] 3-(1H-indol-3-yl)propanoate] |  | C (>75% of the tested compound remaining) |
| CCCCCCCC(=O)Oc1ccc(/C=C/c2cc(OC(=O)CCCCCCC)cc(OC(=O)CCCCCCC)c2)cc1 [Example 69, [4-[(E)-2-[3,5-di(octanoyloxy)phenyl]vinyl]phenyl] octanoate] |  | C (>75% of the tested compound remaining) |
| O=C(CCCc1ccccc1)Oc1ccc(/C=C/c2cc(OC(=O)CCCc3ccccc3)cc(OC(=O)CCCc3ccccc3)c2)cc1 [Example 9, [4-[(E)-2-[3,5-bis(4-phenylbutanoyloxy)phenyl]vinyl]phenyl] 4-phenylbutanoate] | C (>75% of the tested compound remaining) |  |
| CCCC(=O)O[C@@H]1[C@@H](OC(=O)CCC)[C@H](Oc2ccccc2C(=O)O)OC[C@H]1OC(=O)CCC [Example 120, 2-[(2S,3R,4S,5R)-3,4,5-tri(butanoyloxy)tetrahydropyran-2-yl]oxybenzoic acid] | A (<25% of the tested compound remaining) |  |
| CCCCCCCC(=O)Oc1ccc2c(c1)oc(=O)c1cc(OC(=O)CCCCCCC)c(OC(=O)CCCCCCC)cc12 [Example 57, [8,9-di(octanoyloxy)-6-oxo-benzo[c]chromen-3-yl] octanoate] |  | C (>75% of the tested compound remaining) |

From patent US20230293458A1, “MULTIBIOTIC AGENTS AND METHODS OF USING THE SAME” (Flagship Pioneering Innovations V, Inc., priority 2017, published 2023)
